The results in this text go back to patent US10590113B2, “6-hydroxy-4-oxo-1,4-dihydropyrimidine-5-carboxamides as APJ agonists” (priority 2016, dated 2020).

As a reminder, the EC50 is the concentration at which the effect is half-maximal.

This experiment concerns the target T1, human APJ receptor (Homo sapiens, UniProt P35414).
T1 construct: expressed in transfected cells; host or cells: HEK293
T1 sequence (P35414 1-380): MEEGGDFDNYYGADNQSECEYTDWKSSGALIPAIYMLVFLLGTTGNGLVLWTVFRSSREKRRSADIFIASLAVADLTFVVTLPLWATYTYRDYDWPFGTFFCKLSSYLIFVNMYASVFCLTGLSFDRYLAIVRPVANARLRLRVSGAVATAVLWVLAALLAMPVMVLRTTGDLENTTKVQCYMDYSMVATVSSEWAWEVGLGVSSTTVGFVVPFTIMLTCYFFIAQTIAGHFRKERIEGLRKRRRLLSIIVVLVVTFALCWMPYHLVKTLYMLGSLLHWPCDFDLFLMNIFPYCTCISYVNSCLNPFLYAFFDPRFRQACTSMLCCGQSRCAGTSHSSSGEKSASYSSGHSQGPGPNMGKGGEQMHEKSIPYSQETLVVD
The experiment can be described thus: Intracellular cAMP Accumulation Assay (APJ hcAMP, HTRF). The class given is cell-based. Particulars: human APJ, cAMP accumulation; potency range class; read-out: hAPJ cAMP EC50 Potency range. Put shortly: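 Stably transfected HEK293 cells (5,000/well) incubated 30 min at room temperature with serially diluted compound, […] and 2 μM forskolin. cAMP measured by HTRF after 60 min with detection reagents, quantified against a cAMP standard curve; EC50 from variable-slope sigmoidal fit of inhibition of forskolin-stimulated cAMP.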
Background: TR-FRET usually uses a lanthanide donor and a delayed reading to cut background.

For `COc1cccc(OC)c1-n1c(-c2cncc(Cl)c2)nc(=O)c(C(=O)N2CCC(c3c(F)cccc3F)C2)c1O` (single isomer, unassigned) [Example 247, 2-(5-chloropyridin-3-yl)-5-[3-(2,6-difluorophenyl)pyrrolidine-1-carbonyl]-1-(2,6-dimethoxyphenyl)-6-hydroxy-1,4-dihydropyrimidin-4-one], the EC50 was 0.01 to 10 nM.

Regarding `COc1cccc(OC)c1-n1c(-c2cnn(C)c2)nc(=O)c(C(=O)N2CCC(c3c(F)cccc3F)C2)c1O` (single isomer, unassigned) [Example 249, 5-[3-(2,6-difluorophenyl)pyrrolidine-1-carbonyl]-1-(2,6-dimethoxyphenyl)-6-hydroxy-2-(1-methyl-1H-pyrazol-4-yl)-1,4-dihydropyrimidin-4-one], the EC50 is 0.01 to 10 nM. As to `COc1cccc(OC)c1-n1c(-c2ccn(C)n2)nc(=O)c(C(=O)N2CCC(c3c(F)cccc3F)C2)c1O` (single isomer, unassigned) [Example 251, 5-[3-(2,6-difluorophenyl)pyrrolidine-1-carbonyl]-1-(2,6-dimethoxyphenyl)-6-hydroxy-2-(1-methyl-1H-pyrazol-3-yl)-1,4-dihydropyrimidin-4-one], the EC50 fell in the range of 0.01 to 10 nM. The value for `COc1cccc(OC)c1-n1c(-c2ccc(C)nc2)nc(=O)c(C(=O)N2CCC(c3c(F)cccc3F)C2)c1O` (single isomer, unassigned) [Example 252, 5-[3-(2,6-difluorophenyl)pyrrolidine-1-carbonyl]-1-(2,6-dimethoxyphenyl)-6-hydroxy-2-(6-methylpyridin-3-yl)-1,4-dihydropyrimidin-4-one] was 0.01 to 10 nM; that for `COc1cccc(OC)c1-n1c(-c2ccnc(C)c2)nc(=O)c(C(=O)N2CCC(c3ccc(F)cc3F)C2)c1O` (single isomer, unassigned) [Example 254, 5-[3-(2,4-difluorophenyl)pyrrolidine-1-carbonyl]-1-(2,6-dimethoxyphenyl)-6-hydroxy-2-(2-methylpyridin-4-yl)-1,4-dihydropyrimidin-4-one] was 0.01 to 10 nM. For `COc1cccc(OC)c1-n1c(-c2ccc(F)c(C)c2)nc(=O)c(C(=O)N2CCC(c3ncccc3F)C2)c1O` (single isomer, unassigned) [Example 255, 1-(2,6-dimethoxyphenyl)-2-(4-fluoro-3-methylphenyl)-5-[3-(3-fluoropyridin-2-yl)pyrrolidine-1-carbonyl]-6-hydroxy-1,4-dihydropyrimidin-4-one], the concentration for a half-maximal effect (EC50) lay within 0.01 to 10 nM. For `COc1cccc(OC)c1-n1c(-c2ccc(F)c(C)c2)nc(=O)c(C(=O)N2CCC(c3ncc(F)cc3F)C2)c1O` (single isomer, unassigned) [Example 256, 5-[3-(3,5-difluoropyridin-2-yl)pyrrolidine-1-carbonyl]-1-(2,6-dimethoxyphenyl)-2-(4-fluoro-3-methylphenyl)-6-hydroxy-1,4-dihydropyrimidin-4-one], the EC50 was 0.01 to 10 nM.

Consider `COc1cccc(OC)c1-n1c(-c2ccnc(C)c2)nc(=O)c(C(=O)N2CCC(c3c(F)cccc3F)C2)c1O` (single isomer, unassigned) [Example 257, 5-[3-(2,6-difluorophenyl)pyrrolidine-1-carbonyl]-1-(2,6-dimethoxyphenyl)-6-hydroxy-2-(2-methylpyridin-4-yl)-1,4-dihydropyrimidin-4-one], for which the EC50 fell in the range of 0.01 to 10 nM.

As to `COc1cccc(OC)c1-n1c(-c2ccn(C)n2)nc(=O)c(C(=O)N2CCC(c3ncc(Cl)cc3F)C2)c1O` (single isomer, unassigned) [Example 259, 5-[3-(5-chloro-3-fluoropyridin-2-yl)pyrrolidine-1-carbonyl]-1-(2,6-dimethoxyphenyl)-6-hydroxy-2-(1-methyl-1H-pyrazol-3-yl)-1,4-dihydropyrimidin-4-one], the EC50 is 0.01 to 10 nM. Consider `COc1cccc(OC)c1-n1c(-c2cncc(Cl)c2)nc(=O)c(C(=O)N2CCC(c3ccc(F)cc3F)C2)c1O` (single isomer, unassigned) [Example 260, 2-(5-chloropyridin-3-yl)-5-[3-(2,4-difluorophenyl)pyrrolidine-1-carbonyl]-1-(2,6-dimethoxyphenyl)-6-hydroxy-1,4-dihydropyrimidin-4-one], for which the EC50 was in the range of 0.01 to 10 nM.

For the molecule `COc1cccc(-c2nc(=O)c(C(=O)N3CCC(c4ncc(Cl)cc4F)C3)c(O)n2-c2c(OC)cccc2OC)c1` (single isomer, unassigned) [Example 261, 5-[3-(5-chloro-3-fluoropyridin-2-yl)pyrrolidine-1-carbonyl]-1-(2,6-dimethoxyphenyl)-6-hydroxy-2-(3-methoxyphenyl)-1,4-dihydropyrimidin-4-one], the EC50 fell in the range of 0.01 to 10 nM.

Consider `COc1cccc(OC)c1-n1c(-c2cc(C)ccn2)nc(=O)c(C(=O)N2CCC(c3ccc(F)cc3F)C2)c1O` (single isomer, unassigned) [Example 262, 5-[3-(2,4-difluorophenyl)pyrrolidine-1-carbonyl]-1-(2,6-dimethoxyphenyl)-6-hydroxy-2-(4-methylpyridin-2-yl)-1,4-dihydropyrimidin-4-one], for which the EC50 fell in the range of 0.01 to 10 nM. Then `COc1cccc(OC)c1-n1c(-c2cccc(C)c2)nc(=O)c(C(=O)N2CCC(c3ncc(Cl)cc3F)C2)c1O` (single isomer, unassigned) [Example 263, 5-[3-(5-chloro-3-fluoropyridin-2-yl)pyrrolidine-1-carbonyl]-1-(2,6-dimethoxyphenyl)-6-hydroxy-2-(3-methylphenyl)-1,4-dihydropyrimidin-4-one], with 0.01 to 10 nM; and `COc1cccc(OC)c1-n1c(-c2cccc(Cl)c2)nc(=O)c(C(=O)N2CCC(c3ncc(Cl)cc3F)C2)c1O` (single isomer, unassigned) [Example 264, 5-[3-(5-chloro-3-fluoropyridin-2-yl)pyrrolidine-1-carbonyl]-2-(3-chlorophenyl)-1-(2,6-dimethoxyphenyl)-6-hydroxy-1,4-dihydropyrimidin-4-one], with 0.01 to 10 nM; and `COc1cccc(OC)c1-n1c(-c2ccc(F)cc2)nc(=O)c(C(=O)N2CCC(c3ncc(Cl)cc3F)C2)c1O` (single isomer, unassigned) [Example 265, 5-[3-(5-chloro-3-fluoropyridin-2-yl)pyrrolidine-1-carbonyl]-1-(2,6-dimethoxyphenyl)-2-(4-fluorophenyl)-6-hydroxy-1,4-dihydropyrimidin-4-one], with 0.01 to 10 nM. The value for `CCn1ccc(-c2nc(=O)c(C(=O)N3CCC(c4ccc(F)cc4F)C3)c(O)n2-c2c(OC)cccc2OC)n1` (single isomer, unassigned) [Example 269, 5-[3-(2,4-difluorophenyl)pyrrolidine-1-carbonyl]-1-(2,6-dimethoxyphenyl)-2-(1-ethyl-1H-pyrazol-3-yl)-6-hydroxy-1,4-dihydropyrimidin-4-one] was 0.01 to 10 nM; that for `COc1cccc(OC)c1-n1c(-c2csc(C)n2)nc(=O)c(C(=O)N2CCC(c3c(F)cccc3F)C2)c1O` (single isomer, unassigned) [Example 270, 5-[3-(2,6-difluorophenyl)pyrrolidine-1-carbonyl]-1-(2,6-dimethoxyphenyl)-6-hydroxy-2-(2-methyl-1,3-thiazol-4-yl)-1,4-dihydropyrimidin-4-one] was 0.01 to 10 nM.
